Measured values from patent publication US11345711B2, “8,9-dihydroimidazo[1,2-a]pyrimido[5,4-e]pyrimidin-5(6H)-ones” (IMPACT THERAPEUTICS (SHANGHAI), INC, priority 2016, dated 2022).
Read-outs that look alike come from different tables or passages of the source.

Legend:
Wee1 (h) = Wee1 (h) (Homo sapiens, UniProt P30291); assay: Wee1 kinase (h) detection method, [γ-33P]-ATP filter assay; format: biochemical
LoVo cells = assay: MTT based cell viability assay on LoVo cells; details: Homo sapiens, LoVo, 72 h, 3 d, read-out: IC50, growth inhibition of LoVo cells
Procedure, shortened: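 Inhibition of LoVo proliferation was derived as IC50 from a sigmoidal dose-response fit of cell survival. Readout was MTT (0.5 mg/mL, 4 h) with absorbance at 552/630/690 nm, after 3-day treatment at 37 °C. Eight-point series from 10 μM to 0.01 μM, DMSO control, 1% DMSO final.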

NCI-H1299 cells = assay: MTT based cell viability assay on NCI-H1299 cells; details: Homo sapiens, read-out: IC50, growth inhibition of NCI-H1299 cells
Procedure, shortened: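 NCI-H1299 cells (1000/well, settled overnight) were exposed for 3 d at 37 °C, 5% CO2, to an eight-point series of 10 μM to 0.01 μM plus DMSO blank, as prepared in DMSO (final DMSO 1‰). MTT (0.5 mg/mL, 4 h) was read at 552/630/690 nm. IC50 came from sigmoidal dose-response fits of survival.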

Chain of Wee1 (h) (P30291 whole entry): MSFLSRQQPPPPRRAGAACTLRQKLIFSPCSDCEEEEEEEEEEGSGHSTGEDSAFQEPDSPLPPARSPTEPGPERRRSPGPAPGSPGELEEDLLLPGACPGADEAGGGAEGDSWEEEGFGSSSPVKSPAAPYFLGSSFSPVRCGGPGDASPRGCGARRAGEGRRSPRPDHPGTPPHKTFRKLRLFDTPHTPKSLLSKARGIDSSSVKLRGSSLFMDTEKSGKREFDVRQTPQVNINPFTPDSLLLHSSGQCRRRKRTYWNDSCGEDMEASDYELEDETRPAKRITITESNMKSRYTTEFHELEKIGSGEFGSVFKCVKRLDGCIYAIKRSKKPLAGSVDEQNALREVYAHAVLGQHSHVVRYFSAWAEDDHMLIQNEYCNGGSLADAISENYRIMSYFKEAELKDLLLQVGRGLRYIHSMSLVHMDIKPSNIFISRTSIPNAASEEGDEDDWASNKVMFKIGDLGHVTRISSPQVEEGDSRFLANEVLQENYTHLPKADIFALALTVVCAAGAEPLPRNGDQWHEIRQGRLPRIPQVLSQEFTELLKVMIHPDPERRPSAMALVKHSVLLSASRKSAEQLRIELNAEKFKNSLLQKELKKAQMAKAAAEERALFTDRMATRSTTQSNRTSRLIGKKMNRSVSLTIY

Structure (SMILES)	Inh. (%) of Wee1 kinase enzyme activity (Wee1 (h); C 1 μm compound)	IC50 (LoVo cells)	IC50 (NCI-H1299 cells; NCI-H1299 cells)	Inh. (%) of Wee1 kinase enzyme activity (Wee1 (h); C 0.01 μm compound)	Inh. (%) of Wee1 kinase enzyme activity (Wee1 (h); C 0.1 μm compound)	IC50 (NCI-H1299 cells; NCI-H1299, NCI-H1299 cells)
CN1CCN(c2ccc(Nc3ncc4c(n3)N3CCN=C3N(c3ncccn3)C4=O)cc2)CC1 [Example 92, 6-(Pyrimidin-2-yl)-2-((4-(4-methylpiperazin-1-yl)phenyl)amino)-8,9-dihydroimidazo[1,2-a]pyrimido[5,4-e]pyrimidin-5(6H)-one]	1%	> 100000 nM	> 10000 nM			
CN1CCN(c2ccc(Nc3ncc4c(n3)N3CCN=C3NC4=O)cc2)CC1 [Example 93, 2-((4-(4-Methylpiperazin-1-yl)phenyl)amino)-8,9-dihydroimidazo[1,2-a]pyrimido[5,4-e]pyrimidin-5(6H)-one]	0%	> 100000 nM	> 10000 nM			
CN1CCN(c2ccc(Nc3ncc4c(n3)N3CCN=C3N(C3CCC3)C4=O)cc2)CC1 [Example 94, 6-Cyclobutyl-2-((4-(4-methylpiperazin-1-yl)phenyl)amino)-8,9-dihydroimidazo[1,2-a]pyrimido[5,4-e]pyrimidin-5(6H)-one]	19%	1910 nM	2390 nM			
CN1CCN(c2ccc(Nc3ncc4c(n3)N3CCN=C3N(C3CCCC3)C4=O)cc2)CC1 [Example 95, 6-Cyclopentyl-2-((4-(4-methylpiperazin-1-yl)phenyl)amino)-8,9-dihydroimidazo[1,2-a]pyrimido[5,4-e]pyrimidin-5(6H)-one]	8%	1880 nM	2130 nM			
CN1CCN(c2ccc(Nc3ncc4c(n3)N3CCN=C3N(c3ccccc3)C4=O)cc2)CC1 [Example 96, 6-Phenyl-2-((4-(4-methylpiperazin-1-yl)phenyl)amino)-8,9-dihydroimidazo[1,2-a]pyrimido[5,4-e]pyrimidin-5(6H)-one]	29%	> 100000 nM	> 10000 nM			
CN1CCN(c2ccc(Nc3ncc4c(n3)N3CCN=C3N(c3ccccn3)C4=O)cc2)CC1 [Example 97, 6-(Pyridin-2-yl)-2-((4-(4-methylpiperazin-1-yl)phenyl)amino)-8,9-dihydroimidazo[1,2-a]pyrimido[5,4-e]pyrimidin-5(6H)-one]	9%	> 100000 nM	> 10000 nM			
CN1CCN(c2ccc(Nc3ncc4c(n3)N3CCN=C3N(c3cccnc3)C4=O)cc2)CC1 [Example 98, 6-(Pyridin-3-yl)-2-((4-(4-methylpiperazin-1-yl)phenyl)amino)-8,9-dihydroimidazo[1,2-a]pyrimido[5,4-e]pyrimidin-5(6H)-one]	2%	> 100000 nM	> 10000 nM			
CN1CCN(c2ccc(Nc3ncc4c(n3)N3CCN=C3N(c3ccncc3)C4=O)cc2)CC1 [Example 99, 6-(Pyridin-4-yl)-2-((4-(4-methylpiperazin-1-yl)phenyl)amino)-8,9-dihydroimidazo[1,2-a]pyrimido[5,4-e]pyrimidin-5(6H)-one]	8%	> 100000 nM	> 10000 nM			
CN1CCN(c2ccc(Nc3ncc4c(n3)N3CCN=C3N(c3c(F)cccc3F)C4=O)cc2Cl)CC1 [Example 100, 6-(2,6-Difluorophenyl)-2-((3-chloro-4-(4-methylpiperazin-1-yl)phenyl)amino)-8,9-dihydroimidazo[1,2-a]pyrimido[5,4-e]pyrimidin-5(6H)-one]	87%	172 nM	532 nM			
Cc1cc(Nc2ncc3c(n2)N2CCN=C2N(c2c(F)cccc2F)C3=O)cc(C)c1N1CCN(C)CC1 [Example 101, 6-(2,6-Difluorophenyl)-2-((3,5-dimethyl-4-(4-methylpiperazin-1-yl)phenyl)amino)-8,9-dihydroimidazo[1,2-a]pyrimido[5,4-e]pyrimidin-5(6H)-one]	95%	95.4 nM		22%	70%	214 nM
O=C1c2cnc(Nc3ccc(-n4ccnc4)cc3)nc2N2CCN=C2N1c1c(F)cccc1Cl [Example 102, 6-(2-Chloro-6-fluorophenyl)-2-((4-(1H-imidazol-1-yl)phenyl)amino)-8,9-dihydroimidazo[1,2-a]pyrimido[5,4-e]pyrimidin-5(6H)-one]	7%	> 100000 nM	> 10000 nM			
CN1CCCN(c2ccc(Nc3ncc4c(n3)N3CCN=C3N(c3c(F)cccc3Cl)C4=O)cc2)CC1 [Example 103, 6-(2-Chloro-6-fluorophenyl)-2-((4-(4-methyl-1,4-diazepan-1-yl)phenyl)amino)-8,9-dihydroimidazo[1,2-a]pyrimido[5,4-e]pyrimidin-5(6H)-one]	92%	678 nM	1050 nM	30%	70%	
CN1CCN(Cc2ccc(Nc3ncc4c(n3)N3CCN=C3N(c3c(F)cccc3Cl)C4=O)cc2)CC1 [Example 104, 6-(2-Chloro-6-fluorophenyl)-2-((4-((4-methylpiperazin-1-yl)methyl)phenyl)amino)-8,9-dihydroimidazo[1,2-a]pyrimido[5,4-e]pyrimidin-5(6H)-one]	93%	460 nM	1050 nM			
CN(C)CCOc1ccc(Nc2ncc3c(n2)N2CCN=C2N(c2c(F)cccc2Cl)C3=O)cc1 [Example 105, 6-(2-Chloro-6-fluorophenyl)-2-((4-(2-(dimethylamino)ethoxy)phenyl)amino)-8,9-dihydroimidazo[1,2-a]pyrimido[5,4-e]pyrimidin-5(6H)-one]	97%	373 nM	911 nM	40%	85%	
CN(C)CCCOc1ccc(Nc2ncc3c(n2)N2CCN=C2N(c2c(F)cccc2Cl)C3=O)cc1 [Example 106, 6-(2-Chloro-6-fluorophenyl)-2-((4-(3-(dimethylamino)propoxy)phenyl)amino)-8,9-dihydroimidazo[1,2-a]pyrimido[5,4-e]pyrimidin-5(6H)-one]	94%	330 nM	835 nM	38%	83%	
CN1CCC(Oc2ccc(Nc3ncc4c(n3)N3CCN=C3N(c3c(F)cccc3Cl)C4=O)cc2)CC1 [Example 107, 6-(2-Chloro-6-fluorophenyl)-2-((4-((1-methylpiperidin-4-yl)oxy)phenyl)amino)-8,9-dihydroimidazo[1,2-a]pyrimido[5,4-e]pyrimidin-5(6H)-one]	95%	360 nM	794 nM			
CN(C)CCNc1ccc(Nc2ncc3c(n2)N2CCN=C2N(c2c(F)cccc2Cl)C3=O)cc1 [Example 108, 6-(2-Chloro-6-fluorophenyl)-2-((4-((2-(dimethylamino)ethyl)amino)phenyl)amino)-8,9-dihydroimidazo[1,2-a]pyrimido[5,4-e]pyrimidin-5(6H)-one]	96%	1500 nM				899 nM
CN(C)CCN(C)c1ccc(Nc2ncc3c(n2)N2CCN=C2N(c2c(F)cccc2Cl)C3=O)cc1 [Example 109, 6-(2-Chloro-6-fluorophenyl)-2-((4-((2-(dimethylamino)ethyl)(methyl)amino)phenyl)amino)-8,9-dihydroimidazo[1,2-a]pyrimido[5,4-e]pyrimidin-5(6H)-one]	96%	1150 nM	884 nM			
CN(C)CCCNc1ccc(Nc2ncc3c(n2)N2CCN=C2N(c2c(F)cccc2Cl)C3=O)cc1 [Example 110, 6-(2-Chloro-6-fluorophenyl)-2-((4-((3-(dimethylamino)propyl)amino)phenyl)amino)-8,9-dihydroimidazo[1,2-a]pyrimido[5,4-e]pyrimidin-5(6H)-one]	96%	472 nM	599 nM			
CN(C)CCCN(C)c1ccc(Nc2ncc3c(n2)N2CCN=C2N(c2c(F)cccc2Cl)C3=O)cc1 [Example 111, 6-(2-Chloro-6-fluorophenyl)-2-((4-((3-(dimethylamino)propyl)(methyl)amino)phenyl)amino)-8,9-dihydroimidazo[1,2-a]pyrimido[5,4-e]pyrimidin-5(6H)-one]	96%	835 nM	913 nM			
CN1CCC(Nc2ccc(Nc3ncc4c(n3)N3CCN=C3N(c3c(F)cccc3Cl)C4=O)cc2)CC1 [Example 112, 6-(2-Chloro-6-fluorophenyl)-2-((4-((1-methylpiperidin-4-yl)amino)phenyl)amino)-8,9-dihydroimidazo[1,2-a]pyrimido[5,4-e]pyrimidin-5(6H)-one]	97%	393 nM				481 nM
CN1CCC(N(C)c2ccc(Nc3ncc4c(n3)N3CCN=C3N(c3c(F)cccc3Cl)C4=O)cc2)CC1 [Example 113, 6-(2-Chloro-6-fluorophenyl)-2-((4-(methyl(1-methylpiperidin-4-yl)amino)phenyl)amino)-8,9-dihydroimidazo[1,2-a]pyrimido[5,4-e]pyrimidin-5(6H)-one]	96%	483 nM				672 nM
